This assay has as its system apyrase. Description: Screen for apyrase inhibitors (Method 1, in vitro phosphate-release absorbance assay). Conditions: inhibitor conc at 1 mM stock, 1 hr room temperature, absorbance 630 nm; rounded average of two assay results. Type of assay: biochemical. As to the method: Apyrase inhibitors useful as enhancers of pesticidal activity are assessed using an in vitro assay. The method of Windsor, Bio Techniques 33:1024-1030 (November 2002) was used as follows Screen for Apyrase Inhibitors- 96 well plates were used for the assay: (Greiner bio-one: REF-655901-96 well, PS, F-bottom, Clear, Non-binding) Buffers: • Reaction Buffer: 60 mM Hepes; 3 mM MgCl2, 3 mM CaCl2 and 3 mM ATP (pH 6.5) • Development Buffer A: 2% aqueous ammonium molybdate • Development Buffer B: 11% ascorbic acid in 37.5% TCA in water • Stop buffer C: 2% trisodium citrate in 2% acetic acid solution in water • Add 100 μl of reaction buffer to each well. • Add 10 μl of DMSO (control) or inhibitor/compound or compounds such as […] or orthovanadate to each well. […] A blank cell indicates either <10% observed inhibition or a large difference between repetitions. In certain examples, the lack of observed inhibition is due to a lack of solubility of the compound under assay conditions, rather than a lack of apyrase inhibitory activity.
As for `Cc1cc(C(=O)Nc2cccc(S(=O)(=O)Nc3ccc(Br)cc3)c2)ccc1[N+](=O)[O-]` [I-182, N-(3-(N-(4-bromophenyl)sulfamoyl)phenyl)-3-methyl-4-nitrobenzamide], the “% Inhibition of Apyrase” value is 68%.

Consider `O=C(Nc1cccc(S(=O)(=O)Nc2ccc(Br)cc2)c1)c1ccc(Cl)nc1` [I-703, N-(3-(N-(4-bromophenyl)sulfamoyl)phenyl)-6-chloronicotinamide], for which the “% Inhibition of Apyrase” value is reported as 71%. The same measure for `COc1ccc(NS(=O)(=O)c2cccc(C(=O)Nc3ccc(OC(F)F)cc3)c2)cc1` [I-460, N-(4-(difluoromethoxy)phenyl)-3-(N-(4-methoxyphenyl)sulfamoyl)benzamide]: 60%; for `Cc1nc2ccc(NC(=O)c3cccc(S(=O)(=O)N4CCc5ccccc54)c3)cc2s1` [I-592, 3-(indolin-1-ylsulfonyl)-N-(2-methylbenzo[d]thiazol-6-yl)benzamide]: 41%. With `Cc1cc(C(=O)Nc2cccc(S(=O)(=O)Nc3ccccc3F)c2)c(C)n1C1CC1` [I-705, 1-cyclopropyl-N-(3-(N-(2-fluorophenyl)sulfamoyl)phenyl)-2,5-dimethyl-1H-pyrrole-3-carboxamide] the figure was 64%; with `O=C(Nc1nccs1)c1cccc(NS(=O)(=O)c2ccc3c(c2)OCCO3)c1` [I-660, 3-((2,3-dihydrobenzo[b][1,4]dioxine)-6-sulfonamido)-N-(thiazol-2-yl)benzamide], 29%; with `CCOc1ccc(S(=O)(=O)Nc2cccc(C(=O)Nc3ccc(C)cn3)c2)cc1` [I-640, 3-((4-ethoxyphenyl)sulfonamido)-N-(5-methylpyridin-2-yl)benzamide], 56%.

As to `CCN(C(=O)c1ccc(S(=O)(=O)N2CCCc3ccccc32)cc1)c1ccccc1` [I-885, 4-((3,4-dihydroquinolin-1(2H)-yl)sulfonyl)-N-ethyl-N-phenylbenzamide], the “% Inhibition of Apyrase” value was 47%. In the case of `Cc1cc(F)c2c(c1)CCCN2C(=O)c1cccc(S(=O)(=O)N2CCc3ccccc32)c1` [I-493, (8-fluoro-6-methyl-3,4-dihydroquinolin-1(2H)-yl)(3-(indolin-1-ylsulfonyl)phenyl)methanone], the “% Inhibition of Apyrase” value is 58%. As for `COc1cccc(NC(=O)c2cccc(S(=O)(=O)Nc3ccc4c(c3)OCO4)c2)c1` [I-253, 3-(N-(benzo[d][1,3]dioxol-5-yl)sulfamoyl)-N-(3-methoxyphenyl)benzamide], the “% Inhibition of Apyrase” value was determined as 61%. `O=C(Nc1cccc(S(=O)(=O)Nc2ccccc2)c1)c1cccc(Cl)n1` [I-729, 6-chloro-N-(3-(N-phenylsulfamoyl)phenyl)picolinamide]: the “% Inhibition of Apyrase” value is listed as 56%.

As for `CCOc1ccc(NS(=O)(=O)c2c(C)cccc2NC(=O)c2ccccc2OC)cc1` [I-820, N-(2-(N-(4-ethoxyphenyl)sulfamoyl)-3-methylphenyl)-2-methoxybenzamide], the “% Inhibition of Apyrase” value was found to be 57%. With `O=C(Nc1ccc(F)c(Cl)c1)c1cccc(S(=O)(=O)Nc2ccc(F)cc2)c1` [I-450, N-(3-chloro-4-fluorophenyl)-3-(N-(4-fluorophenyl)sulfamoyl)benzamide] the figure was 61%. Regarding `O=C(c1ccc(NS(=O)(=O)c2cc(Cl)ccc2Cl)cc1)N1CCc2ccccc21` [I-964, 2,5-dichloro-N-(4-(indoline-1-carbonyl)phenyl)benzenesulfonamide], the “% Inhibition of Apyrase” value amounted to 10%. For `CC1CCc2c(sc(NC(=O)c3cccc(S(=O)(=O)Nc4ccccc4Cl)c3)c2C#N)C1` (stereo not shown) [I-437, 3-(N-(2-chlorophenyl)sulfamoyl)-N-(3-cyano-6-methyl-4,5,6,7-tetrahydrobenzo[b]thiophen-2-yl)benzamide], the “% Inhibition of Apyrase” value was determined as 64%. Consider `Cc1ccc(NC(=O)c2ccc(NS(=O)(=O)c3ccc(F)c(F)c3)cc2)cc1F` [I-924, 4-((3,4-difluorophenyl)sulfonamido)-N-(3-fluoro-4-methylphenyl)benzamide], for which the “% Inhibition of Apyrase” value was determined as 57%. The same measure for `O=C(Nc1cccc(F)c1)c1cccc(S(=O)(=O)Nc2ccc3c(c2)OCO3)c1` [I-265, 3-(N-(benzo[d][1,3]dioxol-5-yl)sulfamoyl)-N-(3-fluorophenyl)benzamide]: 58%; for `O=C(Nc1cccc(C(F)(F)F)c1)c1cccc(NS(=O)(=O)c2ccccc2F)c1` [I-326, 3-((2-fluorophenyl)sulfonamido)-N-(3-(trifluoromethyl)phenyl)benzamide]: 13%.

On to `Cc1ccc(NS(=O)(=O)c2ccc(C(=O)Nc3ccccc3C)cc2)cc1` [I-394, N-(o-tolyl)-4-(N-(p-tolyl)sulfamoyl)benzamide], for which the “% Inhibition of Apyrase” value is given as 54%. For the compound `Cn1nc(C(=O)Nc2cccc(S(=O)(=O)Nc3cccc(C(F)(F)F)c3)c2)c2ccccc2c1=O` [I-750, 3-methyl-4-oxo-N-(3-(N-(3-(trifluoromethyl)phenyl)sulfamoyl)phenyl)-3,4-dihydrophthalazine-1-carboxamide], the “% Inhibition of Apyrase” value was 41%. The same measure for `COc1ccc([N+](=O)[O-])cc1NS(=O)(=O)c1cccc(C(=O)Nc2ccc(F)c([N+](=O)[O-])c2)c1` [I-275, N-(4-fluoro-3-nitrophenyl)-3-(N-(2-methoxy-5-nitrophenyl)sulfamoyl)benzamide]: 46%; for `O=C(Nc1cccc(S(=O)(=O)Nc2ccc(Cl)cc2)c1)c1ccc(=O)n(Cc2ccccc2)n1` [I-737, 1-benzyl-N-(3-(N-(4-chlorophenyl)sulfamoyl)phenyl)-6-oxo-1,6-dihydropyridazine-3-carboxamide]: 53%; for `Cc1ccc(NS(=O)(=O)c2cc(C(=O)Nc3cccc([N+](=O)[O-])c3)ccc2C)cc1C` [I-5, 3-(N-(3,4-dimethylphenyl)sulfamoyl)-4-methyl-N-(3-nitrophenyl)benzamide]: 71%. The same measure for `Cc1cccc(C(=O)Nc2cccc(NS(=O)(=O)c3ccccc3)c2)c1[N+](=O)[O-]` [I-345, 3-methyl-2-nitro-N-(3-(phenylsulfonamido)phenyl)benzamide]: 53%; for `COc1ccc(NC(=O)c2ccc(Cl)c(S(=O)(=O)N3CCc4ccccc43)c2)cc1OC` [I-588, 4-chloro-N-(3,4-dimethoxyphenyl)-3-(indolin-1-ylsulfonyl)benzamide]: 43%.

As to `Cc1cccc(NS(=O)(=O)c2ccc(C(=O)Nc3cccc(C#N)c3)cc2)c1C` [I-855, N-(3-cyanophenyl)-4-(N-(2,3-dimethylphenyl)sulfamoyl)benzamide], the “% Inhibition of Apyrase” value came to 82%.

For the compound `O=C(c1cccc(S(=O)(=O)Nc2cccc(Cl)c2)c1)N1CCc2ccccc21` [I-542, N-(3-chlorophenyl)-3-(indoline-1-carbonyl)benzenesulfonamide], the “% Inhibition of Apyrase” value is 54%. The same measure for `COc1ccc([N+](=O)[O-])cc1NC(=O)c1cccc(S(=O)(=O)N2CCc3ccccc32)c1` [I-263, 3-(indolin-1-ylsulfonyl)-N-(2-methoxy-5-nitrophenyl)benzamide]: 59%; for `CC(=O)c1cccc(S(=O)(=O)Nc2cccc(C(=O)Nc3cccc(C(F)(F)F)c3)c2)c1` [I-319, 3-((3-acetylphenyl)sulfonamido)-N-(3-(trifluoromethyl)phenyl)benzamide]: 67%. `Cc1ccc([N+](=O)[O-])cc1NC(=O)c1ccc(Cl)c(S(=O)(=O)Nc2cccc(C)c2C)c1` [I-25, 4-chloro-3-(N-(2,3-dimethylphenyl)sulfamoyl)-N-(2-methyl-5-nitrophenyl)benzamide]: the “% Inhibition of Apyrase” value was 28%. Consider `CCCCc1nnc(NC(=O)c2cccc(NS(=O)(=O)c3ccc(C)c(F)c3)c2)s1` [I-647, N-(5-butyl-1,3,4-thiadiazol-2-yl)-3-((3-fluoro-4-methylphenyl)sulfonamido)benzamide], for which the “% Inhibition of Apyrase” value stood at 53%.

On to `COc1ccccc1NC(=O)c1ccc(NS(=O)(=O)c2cccc(C(F)(F)F)c2)cc1` [I-919, N-(2-methoxyphenyl)-4-((3-(trifluoromethyl)phenyl)sulfonamido) benzamide], for which the “% Inhibition of Apyrase” value is on record as 58%. With `CCCOc1ccc(C(=O)Nc2cccc(NS(=O)(=O)c3ccc(C)c(C)c3)c2)cc1OC` [I-348, N-(3-((3,4-dimethylphenyl)sulfonamido)phenyl)-3-methoxy-4-propoxybenzamide] the figure was 48%; with `Cc1ccc(NS(=O)(=O)c2ccc(C(=O)Nc3cccc(S(=O)(=O)N4CCCC4)c3)cc2)cc1` [I-204, N-(3-(pyrrolidin-1-ylsulfonyl)phenyl)-4-(N-(p-tolyl)sulfamoyl)benzamide], 69%.

Regarding `Cc1ccc(NC(=O)c2cccc(S(=O)(=O)N3CCc4ccccc43)c2)c(OCC2CCCO2)c1` (stereo not shown) [I-552, 3-(indolin-1-ylsulfonyl)-N-(4-methyl-2-((tetrahydrofuran-2-yl)methoxy)phenyl)benzamide], the “% Inhibition of Apyrase” value is listed as 53%. The same measure for `O=C(Nc1cccc2cccnc12)c1cccc(NS(=O)(=O)c2cccs2)c1` [I-630, N-(quinolin-8-yl)-3-(thiophene-2-sulfonamido)benzamide]: 66%; for `N#Cc1cccc(NC(=O)c2ccc(NS(=O)(=O)c3ccc(F)cc3)cc2)c1` [I-957, N-(3-cyanophenyl)-4-((4-fluorophenyl)sulfonamido)benzamide]: 20%.
